According to ChEMBL document CHEMBL1201861, “Genomics of Drug Sensitity in Cancer screening data, Wellcome Trust Sanger Institute”:

Columns and labels:
COLO-792 = assay: cells; type: functional, cell-based, Homo sapiens; details: Homo sapiens, COLO-792
Description: SANGER: Inhibition of human COLO-792 cell growth in a cell viability assay.

COR-L279 = assay: SANGER: Inhibition of human COR-L279 cell growth in a cell viability assay.; type: functional, cell-based; details: Homo sapiens, COR-L279
CPC-N = assay: cells; type: functional, cell-based, Homo sapiens; details: Homo sapiens, CPC-N;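 note: growth inhibition of CPC-N cells, with a cell viability assay as the readout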
Description: SANGER: Inhibition of human CPC-N cell growth in a cell viability assay.

ChaGo-K-1 = assay: cells; type: functional, cell-based, Homo sapiens; details: Homo sapiens, ChaGo-K-1;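 note: growth inhibition of ChaGo-K-1 cells, read out with a cell viability assay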
Description: SANGER: Inhibition of human ChaGo-K-1 cell growth in a cell viability assay.

DG-75 = assay: cells; type: functional, cell-based, Homo sapiens; details: Homo sapiens, DG-75;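 note: growth inhibition of DG-75 cells, read out with a cell viability assay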
Description: SANGER: Inhibition of human DG-75 cell growth in a cell viability assay.

EB2 = assay: cells; type: functional, cell-based, Homo sapiens; details: Homo sapiens, EB2;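 note: growth inhibition of EB2 cells, read out with a cell viability assay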
Description: SANGER: Inhibition of human EB2 cell growth in a cell viability assay.

G-361 = assay: cells; type: functional, cell-based, Homo sapiens; details: Homo sapiens, G-361
HCC1599 = assay: cells; type: functional, cell-based, Homo sapiens; details: Homo sapiens, HCC1599;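 note: growth inhibition of HCC1599 cells, read out in a cell viability assay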
Description: SANGER: Inhibition of human HCC1599 cell growth in a cell viability assay.

HT-29 = assay: cells; type: functional, cell-based, Homo sapiens; details: Homo sapiens, HT-29;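 note: growth inhibition of human HT-29 cells, read out by a cell viability assay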
Description: SANGER: Inhibition of human HT-29 cell growth in a cell viability assay.

HT-3 = assay: cells; type: functional, cell-based, Homo sapiens; details: Homo sapiens, HT-3;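 note: growth inhibition measured with a cell viability readout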
Description: SANGER: Inhibition of human HT-3 cell growth in a cell viability assay.

HT55 = assay: cells; type: functional, cell-based, Homo sapiens; details: Homo sapiens, HT55;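 note: cell viability readout measuring growth inhibition of human HT55 cells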
Description: SANGER: Inhibition of human HT55 cell growth in a cell viability assay.

HuP-T4 = assay: cells; type: functional, cell-based, Homo sapiens; details: Homo sapiens, HuP-T4;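 note: cell viability assay measuring how much HuP-T4 cell growth is inhibited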
Description: SANGER: Inhibition of human HuP-T4 cell growth in a cell viability assay.

IGROV-1 = assay: cells; type: functional, cell-based, Homo sapiens; details: Homo sapiens, IGROV-1;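 note: reduction of IGROV-1 cell growth, read out with a viability assay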
Description: SANGER: Inhibition of human IGROV-1 cell growth in a cell viability assay.

IM-9 = assay: SANGER: Inhibition of human IM-9 cell growth in a cell viability assay.; type: functional, cell-based; details: Homo sapiens, IM-9
IST-SL2 = assay: cells; type: functional, cell-based, Homo sapiens; details: Homo sapiens, IST-SL2;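 note: growth inhibition of human IST-SL2 cells, read out by a cell viability assay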
Description: SANGER: Inhibition of human IST-SL2 cell growth in a cell viability assay.

KMS-12-PE = assay: cells; type: functional, cell-based, Homo sapiens; details: Homo sapiens, KMS-12-PE;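 note: growth inhibition of human KMS-12-PE cells, measured with a cell viability assay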
Description: SANGER: Inhibition of human KMS-12-PE cell growth in a cell viability assay.

KP-4 = assay: cells; type: functional, cell-based, Homo sapiens; details: Homo sapiens, KP-4;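 note: human KP-4 cells, with growth inhibition read out through a cell viability assay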
Description: SANGER: Inhibition of human KP-4 cell growth in a cell viability assay.

KYSE-520 cell line = assay: cells; type: functional, cell-based, Homo sapiens; details: Homo sapiens, KYSE-520;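 note: growth inhibition of human KYSE-520 cells, read out with a viability assay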
Description: SANGER: Inhibition of human KYSE-520 cell growth in a cell viability assay.

LC4-1 = assay: cells; type: functional, cell-based, Homo sapiens; details: Homo sapiens, LC4-1;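 note: growth inhibition of LC4-1 cells, read out with a cell viability assay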
Description: SANGER: Inhibition of human LC4-1 cell growth in a cell viability assay.

LCLC-97TM1 = assay: cells; type: functional, cell-based, Homo sapiens; details: Homo sapiens, LCLC-97TM1;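 note: cell viability assay measuring growth inhibition of human LCLC-97TM1 cells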
Description: SANGER: Inhibition of human LCLC-97TM1 cell growth in a cell viability assay.

LP-1 = assay: cells; type: functional, cell-based, Homo sapiens; details: Homo sapiens, LP-1;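 note: growth inhibition of human LP-1 cells, with the read-out taken from a cell viability assay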
Description: SANGER: Inhibition of human LP-1 cell growth in a cell viability assay.

LoVo = assay: cells; type: functional, cell-based, Homo sapiens; details: Homo sapiens, LoVo;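 note: growth inhibition of human LoVo cells, read out with a cell viability assay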
Description: SANGER: Inhibition of human LoVo cell growth in a cell viability assay.

MCF7 = assay: cells; type: functional, cell-based, Homo sapiens; details: Homo sapiens, MCF7;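 note: growth inhibition of human MCF7 cells, read out with a cell viability assay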
Description: SANGER: Inhibition of human MCF7 cell growth in a cell viability assay.

MONO-MAC-6 = assay: cells; type: functional, cell-based, Homo sapiens; details: Homo sapiens, MONO-MAC-6;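 note: cell viability assay measuring growth inhibition of human MONO-MAC-6 cells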
Description: SANGER: Inhibition of human MONO-MAC-6 cell growth in a cell viability assay.

MRK-nu-1 = assay: cells; type: functional, cell-based, Homo sapiens; details: Homo sapiens, MRK-nu-1;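 note: cell viability assay measuring growth suppression of human MRK-nu-1 cells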
Description: SANGER: Inhibition of human MRK-nu-1 cell growth in a cell viability assay.

NCI-H1703 = assay: cells; type: functional, cell-based, Homo sapiens; details: Homo sapiens, NCI-H1703;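 note: growth inhibition of NCI-H1703 cells, read out via a cell viability assay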
Description: SANGER: Inhibition of human NCI-H1703 cell growth in a cell viability assay.

NCI-H1963 = assay: cells; type: functional, cell-based, Homo sapiens; details: Homo sapiens, NCI-H1963;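 note: cell growth inhibition of the human line, determined with a cell viability assay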
Description: SANGER: Inhibition of human NCI-H1963 cell growth in a cell viability assay.

NCI-H2196 = assay: cells; type: functional, cell-based, Homo sapiens; details: Homo sapiens, NCI-H2196;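 note: cell viability assay used as the readout of growth inhibition in NCI-H2196 cells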
Description: SANGER: Inhibition of human NCI-H2196 cell growth in a cell viability assay.

NCI-H460 = assay: cells; type: functional, cell-based, Homo sapiens; details: Homo sapiens, NCI-H460;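 note: cell viability assay scoring growth inhibition of human NCI-H460 cells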
Description: SANGER: Inhibition of human NCI-H460 cell growth in a cell viability assay.

NCI-H522 = assay: cells; type: functional, cell-based, Homo sapiens; details: Homo sapiens, NCI-H522;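 note: cell viability assay measuring growth inhibition of human NCI-H522 cells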
Description: SANGER: Inhibition of human NCI-H522 cell growth in a cell viability assay.

NUGC-3 = assay: cells; type: functional, cell-based, Homo sapiens; details: Homo sapiens, NUGC-3;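 note: growth inhibition of human NUGC-3 cells, read out with a cell viability assay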
Description: SANGER: Inhibition of human NUGC-3 cell growth in a cell viability assay.

PANC-03-27 = assay: cells; type: functional, cell-based, Homo sapiens; details: Homo sapiens, PANC-03-27
Description: SANGER: Inhibition of human PANC-03-27 cell growth in a cell viability assay.

Panc1005 = assay: cells; type: functional, cell-based, Homo sapiens; details: Homo sapiens, Panc1005;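 note: growth inhibition of human PANC-10-05 cells, measured by a cell viability assay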
Description: SANGER: Inhibition of human PANC-10-05 cell growth in a cell viability assay.

SK-MEL-24 = assay: cells; type: functional, cell-based, Homo sapiens; details: Homo sapiens, SK-MEL-24;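 note: growth inhibition read out by a cell viability assay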
Description: SANGER: Inhibition of human SK-MEL-24 cell growth in a cell viability assay.

SK-N-AS = assay: cells; type: functional, cell-based, Homo sapiens; details: Homo sapiens, SK-N-AS;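 note: growth inhibition of human SK-N-AS cells, measured with a cell viability assay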
Description: SANGER: Inhibition of human SK-N-AS cell growth in a cell viability assay.

SW837 = assay: cells; type: functional, cell-based, Homo sapiens; details: Homo sapiens, SW837;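 note: growth inhibition of SW837 cells, determined with a cell viability assay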
Description: SANGER: Inhibition of human SW837 cell growth in a cell viability assay.

T84 = assay: cells; type: functional, cell-based, Homo sapiens; details: Homo sapiens, T84;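 note: growth inhibition measured with a cell viability readout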
Description: SANGER: Inhibition of human T84 cell growth in a cell viability assay.

TALL-1 = assay: cells; type: functional, cell-based, Homo sapiens; details: Homo sapiens, TALL-1;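 note: growth inhibition of cultured human TALL-1 cells, read out by a cell viability assay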
Description: SANGER: Inhibition of human TALL-1 cell growth in a cell viability assay.

BHY = assay: cells; type: functional, cell-based, Homo sapiens; details: Homo sapiens, BHY;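 note: cell growth inhibition read out by a viability assay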
Description: SANGER: Inhibition of human BHY cell growth in a cell viability assay.

BOKU = assay: cells; type: functional, cell-based, Homo sapiens; details: Homo sapiens, BOKU;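 note: growth inhibition of the human BOKU cell line, read out by a cell viability assay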
Description: SANGER: Inhibition of human BOKU cell growth in a cell viability assay.

BPH-1 = assay: cells; type: functional, cell-based, Homo sapiens; details: Homo sapiens, BPH-1;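 note: cell viability assay measuring growth inhibition of human BPH-1 cells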
Description: SANGER: Inhibition of human BPH-1 cell growth in a cell viability assay.

BT-20 = assay: cells; type: functional, cell-based, Homo sapiens; details: Homo sapiens, BT-20;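 note: cell viability assay measuring suppression of growth in human BT-20 cells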
Description: SANGER: Inhibition of human BT-20 cell growth in a cell viability assay.

CAL-72 = assay: cells; type: functional, cell-based, Homo sapiens; details: Homo sapiens, CAL-72;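 note: cell viability assay measuring inhibition of proliferation in the CAL-72 cell line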
Description: SANGER: Inhibition of human CAL-72 cell growth in a cell viability assay.

U2OS = assay: cells; type: functional, cell-based, Homo sapiens, U-2-OS; details: Homo sapiens, U2OS;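 note: growth inhibition of human U-2-OS cells, determined with a cell viability assay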
Description: SANGER: Inhibition of human U-2-OS cell growth in a cell viability assay.

U-251 = assay: cells; type: functional, cell-based, Homo sapiens; details: Homo sapiens, U-251;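 note: growth inhibition of human U-251 cells, read out through a cell viability assay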
Description: SANGER: Inhibition of human U251 cell growth in a cell viability assay.

CHP-212 = assay: cells; type: functional, cell-based, Homo sapiens; details: Homo sapiens, CHP-212
Description: SANGER: Inhibition of human CHP-212 cell growth in a cell viability assay.

NCI-H2029 = assay: cells; type: functional, cell-based, Homo sapiens; details: Homo sapiens, NCI-H2029;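 note: Read-out is a viability assay on the cultured cells, and IC50 is the concentration that suppresses cell growth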
Description: SANGER: Inhibition of human NCI-H2029 cell growth in a cell viability assay.

OC-314 = assay: cells; type: functional, cell-based, Homo sapiens; details: Homo sapiens, OC-314
Description: SANGER: Inhibition of human OC-314 cell growth in a cell viability assay.

Measured: IC50

O=C(O)c1ccc(-c2c[nH]c3ncc(-c4ccccc4)cc23)cc1C1CCCC1 [GSK-650394]
3.72 µM: G-361
5.19 µM: KP-4
11.4 µM: Panc1005
4.83 µM: IST-SL2
1820 nM: MCF7
13 µM: NCI-H522
1.37 µM: LCLC-97TM1
9.91 µM: LoVo
7.27 µM: HT-29
3.4 µM: NCI-H460
10.3 µM: CPC-N
1180 nM: MONO-MAC-6
2600 nM: T84
7.05 µM: MRK-nu-1
8.5 µM: HuP-T4
4.92 µM: BHY
5.29 µM: IGROV-1
not listed: NCI-H2029 | OC-314
> 16 µM: all other assays above

CCC/C=C/C=C/C(=O)O[C@H]1/C(=C/C(=O)OC)C[C@H]2C[C@H]([C@@H](C)O)OC(=O)C[C@H](O)C[C@@H]3C[C@H](OC(C)=O)C(C)(C)[C@](O)(C[C@@H]4C/C(=C/C(=O)OC)C[C@H](/C=C/C(C)(C)[C@]1(O)O2)O4)O3 [BRYOSTATIN 1]
0.00603 µM: BPH-1
> 8 nM: MCF7 | MONO-MAC-6 | T84
not listed: NCI-H2029 | OC-314
> 0.008 µM: all other assays above

Oc1ccc2ccccc2c1SSc1c(O)ccc2ccccc12
9.1 µM: CHP-212
30.5 µM: LP-1
2180 nM: MCF7
20.7 µM: IST-SL2
4.49 µM: EB2
7.93 µM: IM-9
24.5 µM: BHY
24.7 µM: CAL-72
> 32000 nM: MONO-MAC-6
12200 nM: T84
not listed: NCI-H2029 | OC-314
> 32 µM: all other assays above

CN(C)C(=N)NC(=N)N [METFORMIN]
8160 µM: HT-3
17300 µM: NCI-H1703
7050 µM: KP-4
15300 µM: BT-20
7510 µM: COLO-792
6270 µM: CAL-72
3170 µM: LCLC-97TM1
9630 µM: CHP-212
> 20000 µM: HT-29 | HT55 | IGROV-1 | LoVo | NCI-H460 | SK-MEL-24 | SW837 | BHY | U2OS
14.8 mM: NCI-H2029
8890 µM: ChaGo-K-1
> 20 mM: OC-314
9900 µM: U-251
